# Target: T1, human recombinant HDAC6 (Homo sapiens, UniProt Q9UBN7)
# T1 construct: purchased Calbiochem 382180
# T1 sequence (Q9UBN7 1-1215): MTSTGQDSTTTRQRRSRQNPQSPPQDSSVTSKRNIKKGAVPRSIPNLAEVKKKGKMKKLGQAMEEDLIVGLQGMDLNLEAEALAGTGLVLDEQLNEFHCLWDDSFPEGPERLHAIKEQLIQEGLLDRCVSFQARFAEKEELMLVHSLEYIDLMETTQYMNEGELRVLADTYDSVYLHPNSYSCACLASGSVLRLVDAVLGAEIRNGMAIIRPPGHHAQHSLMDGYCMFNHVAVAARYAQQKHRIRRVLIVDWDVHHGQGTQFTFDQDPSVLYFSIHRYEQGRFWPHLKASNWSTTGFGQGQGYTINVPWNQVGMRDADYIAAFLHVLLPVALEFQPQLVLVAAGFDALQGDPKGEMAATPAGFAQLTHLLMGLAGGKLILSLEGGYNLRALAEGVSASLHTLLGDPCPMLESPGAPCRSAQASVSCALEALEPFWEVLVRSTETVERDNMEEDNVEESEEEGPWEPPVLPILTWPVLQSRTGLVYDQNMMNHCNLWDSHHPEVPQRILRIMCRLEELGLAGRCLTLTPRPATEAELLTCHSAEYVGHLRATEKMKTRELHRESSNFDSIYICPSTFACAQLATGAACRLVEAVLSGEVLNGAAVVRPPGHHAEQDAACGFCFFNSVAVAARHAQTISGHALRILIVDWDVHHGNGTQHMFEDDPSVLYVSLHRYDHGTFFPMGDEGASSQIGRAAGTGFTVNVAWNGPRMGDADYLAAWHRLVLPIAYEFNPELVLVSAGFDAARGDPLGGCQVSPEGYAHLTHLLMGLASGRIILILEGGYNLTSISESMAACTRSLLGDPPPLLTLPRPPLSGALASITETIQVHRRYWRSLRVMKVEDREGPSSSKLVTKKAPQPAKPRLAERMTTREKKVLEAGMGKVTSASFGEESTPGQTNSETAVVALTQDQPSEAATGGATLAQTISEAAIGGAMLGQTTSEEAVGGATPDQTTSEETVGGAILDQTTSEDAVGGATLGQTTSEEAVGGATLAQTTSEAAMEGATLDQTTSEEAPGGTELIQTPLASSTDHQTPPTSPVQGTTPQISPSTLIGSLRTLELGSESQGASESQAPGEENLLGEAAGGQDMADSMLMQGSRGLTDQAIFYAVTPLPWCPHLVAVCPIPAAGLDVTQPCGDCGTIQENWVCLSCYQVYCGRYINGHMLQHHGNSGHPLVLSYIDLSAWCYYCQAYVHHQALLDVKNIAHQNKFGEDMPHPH
# Assay: HDAC6 enzyme activity inhibition assay (HDAC Fluorimetric Drug Discovery Kit)
# Type: biochemical
# Conditions: for HDAC6 selectivity (fold): HDAC6 over HDAC1; for IC50: human recombinant HDAC6, same protocol as HDAC1, read-out: HDAC6
# Summary of the method: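 Human recombinant HDAC1 or HDAC6 (0.3 μg) reacted with 10 μM Fluor de Lys-SIRT1 substrate and 5-fold compound dilutions for 60 min at 30 °C. Developer II added for 30 min, fluorescence read at Ex 360/Em 460; IC50 calculated from the readings.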
HDAC6 selectivity (fold),IC50 [nM],SMILES
60,167,"O=C(NCCN1CCCC1)N(Cc1ccc(-c2nnc(C(F)F)o2)cc1F)c1ccccc1 [Compound 21956, 1-(4-(5-(Difluoromethyl)-1,3,4-oxadiazol-2-yl)-2-fluorobenzyl)-1-phenyl-3-(2-(pyrrolidin-1-yl)ethyl)urea]"
116,86,"O=C(NCCN1CCCCC1)N(Cc1ccc(-c2nnc(C(F)F)o2)cc1F)c1ccccc1 [Compound 21957, 1-(4-(5-(Difluoromethyl)-1,3,4-oxadiazol-2-yl)-2-fluorobenzyl)-1-phenyl-3-(2-(piperidin-1-yl)ethyl)urea]"
115,87,"CN1CCN(CCNC(=O)N(Cc2ccc(-c3nnc(C(F)F)o3)cc2F)c2ccccc2)CC1 [Compound 21958, 1-(4-(5-(Difluoromethyl)-1,3,4-oxadiazol-2-yl)-2-fluorobenzyl)-3-(2-(4-methylpiperazin-1-yl)ethyl)-1-phenylurea]"
6,1550,"CN1CCC(c2ccc(N(Cc3ccc(-c4nnc(C(F)F)o4)cc3F)C(=O)N3CCS(=O)(=O)CC3)cc2)CC1 [Compound 21970, N-(4-(5-(difluoromethyl)-1,3,4-oxadiazol-2-yl)-2-fluorobenzyl)-N-(4-(1-methylpiperidin-4-yl)phenyl)thiomorpholine-4-carboxamide 1,1-dioxide]"
59,169,"CCN1CCN(CCOc2ccc(N(Cc3ccc(-c4nnc(C(F)F)o4)cc3F)C(=O)N3CCS(=O)(=O)CC3)cc2)CC1 [Compound 21971, N-(4-(5-(difluoromethyl)-1,3,4-oxadiazol-2-yl)-2-fluorobenzyl)-N-(4-(2-(4-ethylpiperazin-1-yl)ethoxy)phenyl)thiomorpholine-4-carboxamide 1,1-dioxide]"
38,266,"CCN1CCN(CCCOc2ccc(N(Cc3ccc(-c4nnc(C(F)F)o4)cc3F)C(=O)N3CCS(=O)(=O)CC3)cc2)CC1 [Compound 21972, N-(4-(5-(difluoromethyl)-1,3,4-oxadiazol-2-yl)-2-fluorobenzyl)-N-(4-(3-(4-ethylpiperazin-1-yl)propoxy)phenyl)thiomorpholine-4-carboxamide 1,1-dioxide]"
15,669,"Cc1nnc(N(Cc2ccc(-c3nnc(C(F)F)o3)cc2F)C(=O)N2CCS(=O)(=O)CC2)s1 [Compound 21979, N-(4-(5-(difluoromethyl)-1,3,4-oxadiazol-2-yl)-2-fluorobenzyl)-N-(5-methyl-1,3,4-thiadiazol-2-yl)thiomorpholine-4-carboxamide 1,1-dioxide]"
10,1030,"Cc1nnc(N(Cc2ccc(-c3nnc(C(F)F)o3)cc2F)C(=O)N2CCOCC2)s1 [Compound 21980, N-(4-(5-(difluoromethyl)-1,3,4-oxadiazol-2-yl)-2-fluorobenzyl)-N-(5-methyl-1,3,4-thiadiazol-2-yl)morpholine-4-carboxamide]"
13,758,"O=C(N1CCOCC1)N(Cc1ccc(-c2nnc(C(F)F)o2)cc1F)c1nncs1 [Compound 21981, N-(4-(5-(difluoromethyl)-1,3,4-oxadiazol-2-yl)-2-fluorobenzyl)-N-(1,3,4-thiadiazol-2-yl) morpholine-4-carboxamide]"
96,104,"O=C(NCCN1CCOCC1)N(Cc1ccc(-c2nnc(C(F)F)o2)cc1F)c1ccccc1 [Compound 21982, 1-(4-(5-(Difluoromethyl)-1,3,4-oxadiazol-2-yl)-2-fluorobenzyl)-3-(2-morpholinoethyl)-1-phenylurea]"
63,160,"O=C(NCCN1CC(F)(F)C1)N(Cc1ccc(-c2nnc(C(F)F)o2)cc1F)c1ccccc1 [Compound 21983, 3-(2-(3,3-Difluoroazetidin-1-yl)ethyl)-1-(4-(5-(difluoromethyl)-1,3,4-oxadiazol-2-yl)-2-fluorobenzyl)-1-phenylurea]"
107,93,"O=C(CN1CCN(CCNC(=O)N(Cc2ccc(-c3nnc(C(F)F)o3)cc2F)c2ccccc2)CC1)N1CCOCC1 [Compound 21984, 1-(4-(5-(Difluoromethyl)-1,3,4-oxadiazol-2-yl)-2-fluorobenzyl)-3-(2-(4-(2-morpholino-2-oxoethyl)piperazin-1-yl)ethyl)-1-phenylurea]"
207,48,"O=C(NCCN1CCCOCC1)N(Cc1ccc(-c2nnc(C(F)F)o2)cc1F)c1ccccc1 [Compound 21986, 3-(2-(1,4-Oxazepan-4-yl)ethyl)-1-(4-(5-(difluoromethyl)-1,3,4-oxadiazol-2-yl)-2-fluorobenzyl)-1-phenylurea]"
47,213,"O=C(NCCN1CCC[C@@H]1C(F)(F)F)N(Cc1ccc(-c2nnc(C(F)F)o2)cc1F)c1ccccc1 [Compound 21987, (R)-1-(4-(5-(difluoromethyl)-1,3,4-oxadiazol-2-yl)-2-fluorobenzyl)-1-phenyl-3-(2-(2-(trifluoromethyl)pyrrolidin-1-yl)ethyl)urea]"
33,301,"O=C(NCCN1CCC[C@H]1C(F)(F)F)N(Cc1ccc(-c2nnc(C(F)F)o2)cc1F)c1ccccc1 [Compound 21988, (S)-1-(4-(5-(difluoromethyl)-1,3,4-oxadiazol-2-yl)-2-fluorobenzyl)-1-phenyl-3-(2-(2-(trifluoromethyl)pyrrolidin-1-yl)ethyl)urea]"
80,124,"CC1CCN(CCNC(=O)N(Cc2ccc(-c3nnc(C(F)F)o3)cc2F)c2ccccc2)CC1 [Compound 21989, 1-(4-(5-(Difluoromethyl)-1,3,4-oxadiazol-2-yl)-2-fluorobenzyl)-3-(2-(4-methylpiperidin-1-yl)ethyl)-1-phenylurea]"
100,100,"O=C(NCCN1CCC(F)CC1)N(Cc1ccc(-c2nnc(C(F)F)o2)cc1F)c1ccccc1 [Compound 21990, 1-(4-(5-(Difluoromethyl)-1,3,4-oxadiazol-2-yl)-2-fluorobenzyl)-3-(2-(4-fluoropiperidin-1-yl)ethyl)-1-phenylurea]"
133,75,"C[C@@H]1CN(CCNC(=O)N(Cc2ccc(-c3nnc(C(F)F)o3)cc2F)c2ccccc2)C[C@H](C)N1 [Compound 21992, 1-(4-(5-(Difluoromethyl)-1,3,4-oxadiazol-2-yl)-2-fluorobenzyl)-3-(2-((3S,5R)-3,5-dimethylpiperazin-1-yl)ethyl)-1-phenylurea]"
117,86,"CN1CCN(CCNC(=O)N(Cc2ccc(-c3nnc(C(F)F)o3)cc2F)c2ccccc2)CC1 [Compound 21993, 1-(4-(5-(Difluoromethyl)-1,3,4-oxadiazol-2-yl)-2-fluorobenzyl)-3-(2-(4-methylpiperazin-1-yl)ethyl)-1-phenylurea]"
81,123,"CCN1CCN(CCNC(=O)N(Cc2ccc(-c3nnc(C(F)F)o3)cc2F)c2ccccc2)CC1 [Compound 21994, 1-(4-(5-(Difluoromethyl)-1,3,4-oxadiazol-2-yl)-2-fluorobenzyl)-3-(2-(4-ethylpiperazin-1-yl)ethyl)-1-phenylurea]"

SMILES,HDAC6 selectivity (fold),IC50 [nM]
"CCN1CCN(CCCCOc2ccc(N(Cc3ccc(-c4nnc(C(F)F)o4)cc3F)C(=O)N3CCS(=O)(=O)CC3)cc2)CC1 [Compound 21973, N-(4-(5-(difluoromethyl)-1,3,4-oxadiazol-2-yl)-2-fluorobenzyl)-N-(4-(4-(4-ethylpiperazin-1-yl)butoxy)phenyl)thiomorpholine-4-carboxamide 1,1-dioxide]",39,256
"O=C1CCN(CCNC(=O)N(Cc2ccc(-c3nnc(C(F)F)o3)cc2F)c2ccccc2)CC1 [Compound 21991, 1-(4-(5-(Difluoromethyl)-1,3,4-oxadiazol-2-yl)-2-fluorobenzyl)-3-(2-(4-oxopiperidin-1-yl)ethyl)-1-phenylurea]",120,83

# Reference: patent publication US10717716B2, “1,3,4-oxadiazole derivative compounds as histone deacetylase 6 inhibitor, and the pharmaceutical composition comprising the same” (Chong Kun Dang Pharmaceutical Corp., priority 2015, dated 2020)
